# From US12139729B2, “Neurodegenerative disorders” (priority 2013, dated 2024)
# Read-outs that look alike come from different tables or passages of the source. Residues, ends and D or L forms follow the SMILES beside them. No end group written: not given here.
# What was measured:
# [1] = Cell Counting Kit-8 (CCK-8) cell viability assay; type: cell-based
# Source text: A Cell Counting Kit-8 (CCK-8) was used as an improvement of the SRB technique used before. By utilizing the highly water-soluble tetrazolium salt WST-8, CCK-8 produces a water-soluble formazan dye upon reduction in the presence of an electron carrier. WST-8 is reduced by dehydrogenases in cells to give a yellow colored product (formazan), which is soluble in the tissue culture medium. The amount of the formazan dye generated by the activity of dehydrogenases in cells is directly proportional to the number of living cells. PC12 cells are plated in 200 μl of complete growth medium the day before the experiment in 96 well plates. Treatments with T30 and NBP-14 are added and incubated for 1 hour in the incubator.
# Subsequently, 100 μl of growth medium is removed and 10 μl of CCK-8 (Cell Counting Kit-8) solution is added. The plate is incubated for 2 hours in the incubator and then placed in the absorbance plate reader. The absorbance must be measured at 450 nm.
# [2] = tested on: cortical networks in rat brain slices; test: Voltage-sensitive dye imaging (VSDI) of thalamocortical brain slices; type: cell-based, rat (Wistar); settings: for T30-induced increase of rise-phase slope (velocity of propagation): n=3
# Source text: Using this technique the inventors can obtain comprehensive sets of data on neuronal population activity such as (a) the intensity of the response in any given area, from which (b) the spread of elicited neuronal assemblies can be measured, and from this parameter (c) the velocity of propagation of the activity wave-front from the point of initiation (d) measured as the slope of the spread. Each of these parameters have been measured independently for two experiments carried out so far: i) an investigation of the effects induced by increasing concentrations (0.5, 0.75, 1 & 5 μM) of T30 on cortical population activity and responsiveness, and 2) assessing the antagonistic effects of NBP-14 on a single, relatively high (1 uM), T30 concentration. • Technique used: voltage-sensitive dye imaging (Di-4-ANEPPS) of thalamocortical (TC) p14 rat (Wistar) brain slices. • Stimulation paradigm: 40 Hz (consistent with thalamo-cortical recurrent stimulation) paired pulse stimulation. • Perfusion paradigm: epochs carried out in two phases—for every drug perfusion (say: control, 0.1 uM T30 etc.), the new perfusion was applied and left to perfuse for 15 minutes before starting the recording period (15 minutes also), such that the drug had time to reach its actual concentration and induce its concentration-dependent effects once recording. Meaning one perfusion epoch lasted 30 minutes, with the recording only taking in account the last 15 minutes of its respective perfusion epoch. Detailed Methods Brain Slice Preparation
# Male Wistar rats (14-17 day old; 15 individual animals in total) were anaesthetised using isoflurane: 10 mL 100% w/w isoflurane was applied to the cotton bed at the bottom of an anaesthesia chamber (glass box 20×15×15 cm) where rats were then placed for ˜45 seconds until onset of anaesthesia. The hind paw of each anaesthetised rat was pinched to check for appropriate depth of anaesthesia. Once anaesthesia was confirmed, rats were quickly decapitated before immersing the brain in oxygenated ice-cold artificial cerebrospinal fluid (‘slicing’ aCSF in mmol: 120 NaCl, 5 KCl, 20 NaHCO3, 2.4 CaCl2), 2 MgSO4, 1.2 KH2PO4, 10 glucose, 6.7 HEPES salt and 3.3 HEPES acid; pH: 7.1) for 7-8 minutes, the time taken to cut the brain into slices. Para-saggital sections (400 μm thick) were cut from a block of brain containing both Thalamus (VPN) and primary somato-sensory cortex (barrel field) using a Vibratome (Leica VT1000S) and transferred to a bubbler pot containing aCSF at room temperature (‘recording’ aCSF in mmol: 124 NaCl, 3.7 KCl, 26 NaHCO3, 2 CaCl2, 1.3 MgSO4, 1.3 KH2PO4 and 10 glucose; […]), which was identical to that which was used during electrophysiological recordings and VSDI. Slices were left in oxygenated (95% O2-5% CO2) ‘recording’ aCSF to recuperate for at least 1 hour before VSD staining.
# Slices were placed in a dark, high humidity chamber filled with aCSF bubbling with 95% O2-5% CO2. The dye solution (4% 0.2 mM styryl dye pyridinium 4-[2-[6-(dibutylamino)-2-naphthalenyl]-ethenyl]-1-(3-sulfopropyl)hydroxide (Di-4-ANEPPS, Invitrogen, Paisley, UK) (Tominaga et al., 2000) in aCSF 46%, fetal bovine serum 46%, DMSO 3.5% and cremophore EL 0.4%) was then applied to the slices as previously described (Badin et al., 2013). When starting VSD recordings, slices were placed in the recording bath on a small piece of filter paper to keep slice alive and was weighed down appropriately using a home-made plastic grid placed atop the slice. Because of the fluorescent VSD, all of the handling of slices during and after staining with Di-4-ANEPPS was carried out in almost complete darkness in order to keep the detrimental effects of photo-toxicity and bleaching to a minimum. VPN (where stimulating electrodes were placed) was identified with respect to distance from the tip of the hippocampus and to the side of the internal capsule. […]
# [3] = tested on: Aβ42; test: ELISA detection of Aβ42 in cell culture media; type: cell-based; settings: 1 hour
# Method: After 1 hour of treatment, the culture media was collected and diluted to 1:100, using culture media as diluent. Four repeats of each diluted sample were then placed in the plate provided by the ELISA detection kit, from AnaSpec (Fremont, CA, USA). The detection was then carried out following the manufacturer's protocol. Briefly, the sample was incubated for 4 h in presence of 50 μl of detection antibody. The plate was then washed seven times with the washing solution, the samples were then incubated with the 3,3′,5,5′-Tetramethylbenzidine (TMB) provided with the kit for 15 min. after the sample revelation the reaction was stopped with the stop solution and the optical density was read at 450 nm.
# Accordingly, using immunodetection, the inventors have determined (i) APP levels and (ii) release of amyloid following administration of T30 (5 uM) and NBP14 (0.5 μM).
molecule,measurement,setting,value
CSCC[C@@H]1NC(=O)[C@H](Cc2ccc(O)cc2)NC(=O)[C@H](CO)NC(=O)[C@H](CO)NC(=O)[C@H](Cc2c[nH]c3ccccc23)NC(=O)[C@H](CCCNC(=N)N)NC(=O)[C@H](Cc2c[nH]cn2)NC(=O)[C@H](Cc2ccccc2)NC(=O)[C@H](CCC(=O)O)NC(=O)[C@H](C)NC(=O)[C@H](CCCCN)NC(=O)[C@H](Cc2c[nH]c3ccccc23)NC(=O)[C@H](Cc2c[nH]cn2)NC(=O)[C@H](C(C)C)NC1=O [Cyclic T14] (cyclo(AEFHRWSSYMVHWK)),viability,"[1]; T30 5 uM + NBP-14 5 nM (1st of 10 values), read-out: cell viability, T30 + NBP-14",76.2 ± 7.51%
same,viability,"[1]; T30 5 uM + NBP-14 7 nM (2nd of 10 values), read-out: cell viability, T30 + NBP-14",67 ± 4.35%
same,viability,"[1]; T30 5 uM + NBP-14 9 nM (3rd of 10 values), read-out: cell viability, T30 + NBP-14",76 ± 4.22%
same,viability,"[1]; T30 5 uM + NBP-14 10 nM (4th of 10 values), read-out: cell viability, T30 + NBP-14",71.4 ± 1.64%
same,viability,"[1]; T30 5 uM + NBP-14 20 nM (5th of 10 values), read-out: cell viability, T30 + NBP-14",79 ± 10.2%
same,viability,"[1]; T30 5 uM + NBP-14 50 nM (6th of 10 values), read-out: cell viability, T30 + NBP-14",75.2 ± 3.9%
same,viability,"[1]; T30 5 uM + NBP-14 70 nM (7th of 10 values), read-out: cell viability, T30 + NBP-14",62.4 ± 3.01%
same,viability,"[1]; T30 5 uM + NBP-14, 8th of 10 values, concentration unclear, read-out: cell viability, T30 + NBP-14",78.1 ± 2.16%
same,viability,"[1]; T30 5 uM + NBP-14, 9th of 10 values, concentration unclear, read-out: cell viability, T30 + NBP-14",117 ± 3.62%
same,viability,"[1]; T30 5 uM + NBP-14, 10th of 10 values, concentration unclear, read-out: cell viability, T30 + NBP-14",108 ± 5.1%
same,modulatory effects of NBP-14 on its own,[2],inert
same,modulatory effects of T30 on neuronal populations under NBP-14,"[2]; 300 nM NBP-14, T30 1000 nM",reduced back to control levels
same,T30-induced increase of rise-phase slope (velocity of propagation),[2]; T30 1 μM + 100 nM NBP-14 perfusion,slowed down
same,T30-induced increase of rise-phase slope (velocity of propagation),[2]; T30 1 μM + 300 nM NBP-14 perfusion,reversed back to baseline levels
same,release of Aβ42 in presence of T30 and NBP-14,[3]; T30 (5 uM) + NBP14 (0.5 μM),close to control
"KAEFHRWSSYMVHWKNQFDHYSKQDRCSDL [T30, reference compound]",viability,"[1]; T30 5 uM alone, 1 hour, N=3, read-out: cell viability",74.3%
same,cytotoxicity,"[1]; T30 5 uM, read-out: decrease of cell viability",25%
same,maximum decrease in propagation speed (slope of the rise phase),[2]; 5 μM T30,3.5 fold
same,spread of cortical assemblies,"[2]; T30 0.5, 0.75, 1 μM, affected only at 5 uM",not significantly affected
same,intensity of fluorescence given off by active pixels,[2]; increasing T30 concentration (0.5-5 μM),diminishes
same,release of Aβ42 compared to control,[3]; T30 (5 uM),approximately 175%
